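1) Cells in 96-well plates. 2) Compound, 48 h, 5 concentrations. 3) Linear interpolation between surrounding doses. 4) Unreached endpoint = highest concentration. TGI: concentration producing complete growth inhibition.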
Columns and labels:
Experiment in all cases: growth of human tumour cells (NCI), 48 h
786-0 renal = tested on: 786-0 renal
A498 renal = tested on: A498 renal
A549 NSCLC = tested on: A549 NSCLC
ACHN renal = tested on: ACHN renal
CAKI-1 renal = tested on: CAKI-1 renal
CCRF-CEM leukemia = tested on: CCRF-CEM leukemia
COLO 205 colon = tested on: COLO 205 colon
DLD-1 colon = tested on: DLD-1 colon
DMS 114 small cell lung = tested on: DMS 114 small cell lung
DMS 273 small cell lung = tested on: DMS 273 small cell lung
EKVX NSCLC = tested on: EKVX NSCLC
HCC-2998 colon = tested on: HCC-2998 colon
HCT-116 colon = tested on: HCT-116 colon
HCT-15 colon = tested on: HCT-15 colon
HL-60(TB) leukemia = tested on: HL-60(TB) leukemia
HOP-18 NSCLC = tested on: HOP-18 NSCLC
HOP-62 NSCLC = tested on: HOP-62 NSCLC
HOP-92 NSCLC = tested on: HOP-92 NSCLC
HT29 colon = tested on: HT29 colon
IGROV1 ovarian = tested on: IGROV1 ovarian
K-562 leukemia = tested on: K-562 leukemia
KM12 colon = tested on: KM12 colon
KM20L2 colon = tested on: KM20L2 colon
LOX IMVI melanoma = tested on: LOX IMVI melanoma
LXFL 529 NSCLC = tested on: LXFL 529 NSCLC
M14 melanoma = tested on: M14 melanoma
M19-MEL melanoma = tested on: M19-MEL melanoma
MALME-3M melanoma = tested on: MALME-3M melanoma
MOLT-4 leukemia = tested on: MOLT-4 leukemia
NCI-H226 lung = tested on: NCI-H226 lung
NCI-H23 lung = tested on: NCI-H23 lung
NCI-H460 lung = tested on: NCI-H460 lung
NCI-H522 lung = tested on: NCI-H522 lung
OVCAR-3 ovarian = tested on: OVCAR-3 ovarian
OVCAR-4 ovarian = tested on: OVCAR-4 ovarian
OVCAR-5 ovarian = tested on: OVCAR-5 ovarian
OVCAR-8 ovarian = tested on: OVCAR-8 ovarian
RPMI-8226 leukemia = tested on: RPMI-8226 leukemia
RXF 393 renal = tested on: RXF 393 renal
SF-268 CNS = tested on: SF-268 CNS
SF-295 CNS = tested on: SF-295 CNS
SF-539 CNS = tested on: SF-539 CNS
SK-MEL-2 melanoma = tested on: SK-MEL-2 melanoma
SK-MEL-28 melanoma = tested on: SK-MEL-28 melanoma
SK-MEL-5 melanoma = tested on: SK-MEL-5 melanoma
SK-OV-3 ovarian = tested on: SK-OV-3 ovarian
SN12C renal = tested on: SN12C renal
SNB-19 CNS = tested on: SNB-19 CNS
SNB-75 CNS = tested on: SNB-75 CNS
SR leukemia = tested on: SR leukemia
SW-620 colon = tested on: SW-620 colon
TK-10 renal = tested on: TK-10 renal
U251 CNS = tested on: U251 CNS
UACC-257 melanoma = tested on: UACC-257 melanoma
UACC-62 melanoma = tested on: UACC-62 melanoma
UO-31 renal = tested on: UO-31 renal
XF 498 CNS = tested on: XF 498 CNS
RXF-631 renal = tested on: RXF-631 renal
SNB-78 CNS = tested on: SNB-78 CNS

Measured: TGI

O=C(NC1C(=O)NNC1c1ccccc1Cl)c1ccccc1 (stereo not drawn)
not listed: RXF-631 renal | SNB-78 CNS
> 100 µM: all other assays above

Cc1nc2ccc(N)cc2[nH]c1=O
not listed: DMS 114 small cell lung | HOP-18 NSCLC | HT29 colon | NCI-H226 lung | NCI-H23 lung | NCI-H522 lung | RXF 393 renal | SF-268 CNS | SK-MEL-28 melanoma | SN12C renal | SNB-75 CNS | SR leukemia | XF 498 CNS
> 100 µM: all other assays above

O=C1CC[C@@H](NC(=O)Cc2ccccc2)C(=O)N1
not listed: DMS 114 small cell lung | HCT-15 colon | HL-60(TB) leukemia | RXF 393 renal | RXF-631 renal | SNB-78 CNS
> 100 µM: all other assays above

Cc1ccc(NC(=O)C(=O)CC(=O)c2ccccc2)cc1C
not listed: CCRF-CEM leukemia | HL-60(TB) leukemia | K-562 leukemia | MOLT-4 leukemia | SK-MEL-2 melanoma | SR leukemia | RXF-631 renal
> 100 µM: all other assays above

From PubChem BioAssay (NCI)
